The values that follow are results of earlier work, collected in US20090054377A1, “COMPOSITIONS AND METHODS FOR SMOKING CESSATION” (MODUS BIOLOGICAL MEMBRANES LTD., priority 2004, published 2009).

Where two headings read alike, the source gives them in different places.

Data set [1] relates to smokers.
For data set [2], the system named is smokers. The settings on record: in vivo.
[3] abbreviates: other smoking cessation remedies.

On to `CC(NC(C)(C)C)C(=O)c1cccc(Cl)c1` (stereo not shown) [Bupropion (Zyban), Bupropion], for which, in data set [1] (300 mg/day), the “% Quitters” value was 25% and the “Absolute quit rate (quit rate − quit rate of placebo)” value is given as 11. Also, in data set [1] (setting [3]), the “% Quitters” value is given as 22.5% and the “Absolute quit rate (quit rate − quit rate of placebo)” value was 13.5. Also, in data set [2], the “Adverse Events: Anxiety” value was 8%, the “Adverse Events: Constipation” value is on record as 8%, the “Adverse Events: Diarrhea” value is listed as 4% and the “Adverse Events: Dizziness” value is reported as 8-10%. In data set [2], the “Adverse Events: Dream abnormality” value was 5%, the “Adverse Events: Dry Mouth” value is 1-11%, the “Adverse Events: Insomnia” value is recorded as 31-40% and the “Adverse Events: Rhinitis” value is 12%. The “Adverse Events: Seizures” value in data set [2] is listed as 0.4%.
